# Data reported in patent publication US6048896A, “4-phenyl-4-oxo-2-butenoic acid derivatives with kynurenine-3-hydroxylase inhibiting activity” (Pharmacia & Upjohn S.p.A., priority 1995, dated 2000).
# Legend:
# [1] = test system: ionotropic excitatory aminoacid receptors; conditions: preferentially at glycine co-agonist site of the NMDA receptor; cited from earlier work
# CNS = conditions: cited from earlier work
# kynurenine-3-hydroxylase [2] = biological target: T1, kynurenine-3-hydroxylase (Rattus norvegicus, UniProt O88867); assay: Kynurenine-3-hydroxylase Assay in the Rat Liver; type: biochemical; design: Rat liver mitochondrial extract was used as enzymatic preparation for this assay; from tissue; host or cells: rat liver mitochondrial extract; conditions: rat liver mitochondrial extract, 0.025 mM L-kynurenine, 37° C., 30 min, pH 8.1; read-out: Enzyme Inhibition (Liver) IC50
# T1 sequence (O88867 whole entry): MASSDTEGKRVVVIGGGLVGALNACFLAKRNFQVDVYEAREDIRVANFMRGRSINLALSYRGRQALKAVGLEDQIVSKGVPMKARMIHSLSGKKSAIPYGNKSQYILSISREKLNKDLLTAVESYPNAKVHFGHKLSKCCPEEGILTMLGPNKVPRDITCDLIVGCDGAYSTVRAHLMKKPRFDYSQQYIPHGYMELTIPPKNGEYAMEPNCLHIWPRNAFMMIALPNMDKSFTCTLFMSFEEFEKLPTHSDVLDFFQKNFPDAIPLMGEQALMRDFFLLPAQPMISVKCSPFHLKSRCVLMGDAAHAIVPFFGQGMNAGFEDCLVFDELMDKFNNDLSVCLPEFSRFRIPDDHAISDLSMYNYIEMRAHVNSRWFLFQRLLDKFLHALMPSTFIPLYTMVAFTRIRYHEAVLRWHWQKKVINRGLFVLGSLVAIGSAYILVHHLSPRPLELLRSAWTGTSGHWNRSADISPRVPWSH
# Experimental: Kynurenine-3-hydroxylase Assay in the Rat Liver
# The assay for kynurenine 3-hydroxylase was based on the enzymatic synthesis of tritiated water during the hydroxylation reaction. Radiolabeled water was quantified following selective adsorption of the isotopic substrate and its metabolite with activated charcoal.
# Rat liver mitochondrial extract was used as enzymatic preparation for this assay.
# The assay for kynurenine 3-hydroxylase activity was carried out at 37° C. for a time of 30 min. The reaction mixture of a total volume of […] was constituted of […] of suspended extract, 100 mM Tris/Cl^- buffer pH 8.1, 10 mM EDTA, 100 mM KCl, 0.8 mM NADPH, 0.025 mM L-kynurenine, […] L-(3,5-^3 H)Kynurenine (10 Ci/mmol) and […] of different concentration of inhibitor solutions. After the incubation the reaction was terminated by the addition of 1 mL of 7.5% (w/v) activated charcoal, vortexed and centrifugated for 7 min.
# A […] aliquot of supernatant was counted by scintillation spectroscopy in 5 ml of liquid scintillation.
# kynurenine-3-hydroxylase [3] = biological target: T1, kynurenine-3-hydroxylase; assay: Kynurenine-3-hydroxylase Assay in the Rat Brain; type: biochemical; design: from tissue; conditions: rat brain homogenate, 50 μM L-kynurenine, 60 min incubation, pH 7.5; read-out: Enzyme Inhibition (Brain) IC50
# Experimental: Kynurenine-3-hydroxylase Assay in the Rat Brain
# Brain was homogenized in ice-cold 0.32 M sucrose and centrifuged at 12000×g for 30 min at 4° C. The pellet was washed three times with 0.32 M sucrose by centrifugation and suspended in 0.14 M KCl in 20 mM K-phosphate buffer at pH 7 (1 g tissue in 2 ml buffer).
# The reaction mixture contained: 75 μl of suspended homogenate; 100 μl of substrate solution containing 50 mM K-phosphate buffer pH 7.5, 2 mM MgCl2, 0.4 mM NADPH, 50 μM L-kynurenine (final concentration), and 25 μl of different concentrations of inhibitor solutions. The reaction was stopped by addition of 200 μl of 1 M HClO4 after 60 min incubation. L-3-hydroxykynurenine formed was quantified by HPLC with coulometric detection at a working voltage of +0.2 V. The column was a 10 cm C18 reversed phase (3 μm. The mobile phase consisted of 950 ml distilled water, 20 ml acetonitrile, 9 ml triethylamine, 5.9 ml phosphoric acid, 100 mg sodium EDTA and 1.5 g heptanesulfonic acid. The flow rate was 1 ml/min.
# neuronal cell cultures = conditions: relatively low concentrations, prolonged period of time or in combination with glutamate; cited from earlier work
# [4] = test system: N-methyl-D-aspartate (NMDA) receptor; conditions: cited from earlier work
SMILES,IC50 (kynurenine-3-hydroxylase [2]) [µM],IC50 (kynurenine-3-hydroxylase [3]) [µM],also measured
"O=C(O)c1cc(=O)c2ccccc2[nH]1 [KYNA, kynurenic acid]",,,activity at ionotropic excitatory aminoacid receptors [1]: broad spectrum antagonist; prevention of excitotoxic neuronal damage evoked by QUIN (CNS; co-injected with QUIN): able to prevent the excitotoxic neuronal damage; effect when injected in the CNS (CNS): neuroprotective agent; anticonvulsant and neuroprotective properties (CNS; several animal models): anticonvulsant and neuroprotective properties
"O=C(O)/C=C/C(=O)c1ccc(Cl)c(Cl)c1 [PNU 157694, (E)-4-(3',4'-dichlorophenyl)-4-oxo-2-butenoic acid]",10.4,0.9,
"O=C(O)/C=C/C(=O)c1ccc(F)c(F)c1 [PNU 157961, (E)-4-(3',4'-difluorophenyl)-4-oxo-2-butenoic acid]",21.1,1.1,
"O=C(O)/C=C/C(=O)c1cccc(F)c1 [PNU 158388, (E)-4-(3'-fluorophenyl)-4-oxo-2-butenoic acid]",38.6,21.8,
"O=C(O)/C=C/C(=O)c1cccc([N+](=O)[O-])c1 [PNU 158389, (E)-4-(3'-nitrophenyl)-4-oxo-2-butenoic acid]",30.4,16.6,
"O=C(O)/C=C/C(=O)c1cccc(Cl)c1 [PNU 158390, (E)-4-(3'-chlorophenyl)-4-oxo-2-butenoic acid]",21.9,20.4,
"COC(=O)/C(O)=C\C(=O)c1ccc(Cl)c(Cl)c1 [PNU 158775, Methyl-(E)-2-hydroxy-4-(3',4'-dichlorophenyl)-4-oxo-2-butenoate]",6.9,0.95,
"O=C(O)/C(O)=C\C(=O)c1ccc(Cl)c(Cl)c1 [PNU 158776, (E)-2-hydroxy-4-(3',4'-dichlorophenyl)-4-oxo-2-butenoic acid]",1.8,0.3,
"C/C(=C\C(=O)c1ccc(Cl)c(Cl)c1)C(=O)O [PNU 158785, (E)-2-methyl-4-(3',4'-dichlorophenyl)-4-oxo-2-butenoic acid]",23.5,3.4,
"CC(=CC(=O)O)C(=O)c1ccc(Cl)c(Cl)c1 [PNU 161213, 3-methyl-4-(3',4'-dichlorophenyl)-4-oxo-2-butenoic acid]",26.2,,
"CCOC(=O)/C(O)=C\C(=O)c1ccc(Cl)c(Cl)c1 [PNU 161215, Ethyl-(E)-2-hydroxy-4-(3',4'-dichlorophenyl)-4-oxo-2-butenoate]",1.9,2.01,
"O=C(O)/C(O)=C\C(=O)c1cccc(Cl)c1 [PNU 161216, (E)-2-hydroxy-4-(3'-chlorophenyl)-4-oxo-2-butenoic acid]",1.2,6.9,
"O=C(O)/C(O)=C\C(=O)c1cccc(F)c1 [PNU 161217, (E)-2-hydroxy-4-(3'-fluorophenyl)-4-oxo-2-butenoic acid]",2.8,0.97,
"O=C(O)/C(O)=C\C(=O)c1ccc(F)c(F)c1 [PNU 161219, (E)-2-hydroxy-4-(3',4'-difluorophenyl)-4-oxo-2-butenoic acid]",1.2,0.44,
"O=C(O)/C(O)=C\C(=O)c1ccc(Cl)cc1 [PNU 166909, (E)-2-hydroxy-4-(4'-chlorophenyl)-4-oxo-2-butenoic acid]",8.9,,
"O=C(O)C=C(Cc1ccccc1)C(=O)c1ccc(Cl)c(Cl)c1 [PNU 167535, 3-benzyl-4-(3',4'-dichlorophenyl)-4-oxo-2-butenoic acid]",12.3,,
"O=C(O)c1cccnc1C(=O)O [QUIN, quinolinic acid]",,,neurotoxicity in neuronal cell cultures (neuronal cell cultures): neurotoxic; in vivo convulsions and lesions (CNS; in vivo): produce convulsions and axon sparing lesions; effect when injected in the CNS (CNS): neurotoxin; activity at NMDA receptor [4]: highly selective agonist
